Results on 14 compounds are retold here after PubChem BioAssay (NCI).

Among the test systems are 786-0 renal; COLO 205 colon; HL-60(TB) leukemia; K-562 leukemia; HCT-116 colon; IGROV1 ovarian; SNB-75 CNS; RPMI-8226 leukemia; OVCAR-4 ovarian.
Common to all, as to test: inhibition of tumour cell growth, NCI panel, 48 h

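How tested: cells in 96-well plates exposed to compound for 48 hours at five concentrations. Abbreviation: GI50, concentration required for 50% inhibition of growth. TGI: concentration producing complete growth inhibition.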 A value given as a limit tells only on which side of the number the result lay.

With `COc1ccc(OC)c(N2CC(N)C2=O)c1` (centres undefined), the TGI with 786-0 renal, in the assay with COLO 205 colon, in the assay with HL-60(TB) leukemia, with K-562 leukemia, with HCT-116 colon and in the assay on IGROV1 ovarian was more than 100 µM throughout. The TGI with SNB-75 CNS, in the assay on RPMI-8226 leukemia and in the assay on OVCAR-4 ovarian was more than 100 µM in each case.
Turning to `O=c1ccc2ccccc2cc1[O-].O=c1ccc2ccccc2cc1[O-].[O]=[U+2]=[O]`, the GI50 was 15 µM in the assay on 786-0 renal; 25.3 µM with COLO 205 colon; 14 µM in the assay with HL-60(TB) leukemia; 6.75 µM in the assay on K-562 leukemia; 23.4 µM in the assay with IGROV1 ovarian; 14 µM with SNB-75 CNS. Moreover, the GI50 with RPMI-8226 leukemia is 17 µM; in the assay with OVCAR-4 ovarian, 14.7 µM. Moreover, the TGI with 786-0 renal is 40.8 µM; in the assay with COLO 205 colon it was 71.7 µM; in the assay with HL-60(TB) leukemia it was 52.3 µM; with K-562 leukemia it was more than 100 µM; in the assay with IGROV1 ovarian it was 84.5 µM; in the assay on SNB-75 CNS, 32.8 µM. Also, the figures for the TGI in the assay with RPMI-8226 leukemia and with OVCAR-4 ovarian were more than 100 µM and 55.1 µM, respectively.
Turning to `O=C1C=CC(=O)c2nc3c(cc21)CCC3`, the TGI in the assay on 786-0 renal was 33.4 µM; in the assay on COLO 205 colon, 27.7 µM; with K-562 leukemia, 39.3 µM; with HCT-116 colon, 28.8 µM; in the assay on IGROV1 ovarian, 34 µM; in the assay with SNB-75 CNS, more than 100 µM. This compound displayed a TGI in the assay with OVCAR-4 ovarian of 29.7 µM.
As to `CC(=O)NNc1nc(C)c(C(=O)/C=C/c2ccc(NC(C)=O)cc2)s1`, the TGI in the assay on 786-0 renal, in the assay on COLO 205 colon, in the assay on HL-60(TB) leukemia, in the assay with K-562 leukemia, in the assay with IGROV1 ovarian and in the assay on SNB-75 CNS was more than 100 µM each time. Further, the TGI in the assay with RPMI-8226 leukemia is more than 100 µM.
Consider `CC(=O)OCCOCNC(=S)N/N=C(\C)c1cnccn1`, for which the TGI in the assay on 786-0 renal was more than 100 µM; in the assay on COLO 205 colon, more than 100 µM; with HL-60(TB) leukemia, 76.1 µM; with K-562 leukemia, more than 100 µM; in the assay with HCT-116 colon, more than 100 µM; in the assay on IGROV1 ovarian, more than 100 µM. In addition, the TGI in the assay on SNB-75 CNS, in the assay on RPMI-8226 leukemia and in the assay with OVCAR-4 ovarian was more than 100 µM throughout.
As to `CCCCN(CCCC)C(=O)C(=O)C(C(=O)c1ccc(OC)cc1)c1ccc(OC)cc1` (centres undefined), the TGI with 786-0 renal, in the assay on COLO 205 colon, in the assay with HL-60(TB) leukemia, with K-562 leukemia, with HCT-116 colon and with IGROV1 ovarian was more than 100 µM throughout. This compound gave a TGI in the assay with OVCAR-4 ovarian of more than 100 µM.
Take `CC(C)(C)c1cc2ccc(C(N)=O)cc2c(=O)[nH]1`: the TGI in the assay with 786-0 renal, with COLO 205 colon, in the assay on HL-60(TB) leukemia, with K-562 leukemia, in the assay with HCT-116 colon and with IGROV1 ovarian was more than 100 µM in each case. For the same compound, the TGI in the assay with SNB-75 CNS and in the assay with OVCAR-4 ovarian was more than 100 µM each time.
`C=CC[C@H](C[C@H](C[C@H](C[C@H](C[C@H](C[C@H](C[C@H](C[C@H](C[C@H](C[C@H](CCCCC)OC)OC)OC)OC)OC)OC)OC)OC)OC)OC`: the TGI with 786-0 renal, in the assay with COLO 205 colon, with HL-60(TB) leukemia, in the assay on K-562 leukemia, in the assay on HCT-116 colon and in the assay on IGROV1 ovarian was more than 100 µM each time. The TGI in the assay on SNB-75 CNS, with RPMI-8226 leukemia and with OVCAR-4 ovarian was more than 100 µM throughout.
Regarding `Cc1ccc(/C=C/C(=O)CCN(C)C)cc1`, the TGI was 32.6 µM in the assay on 786-0 renal; 29.4 µM in the assay on COLO 205 colon; 47 µM with HL-60(TB) leukemia; more than 100 µM in the assay on K-562 leukemia; 33.1 µM with HCT-116 colon; 37.1 µM in the assay with IGROV1 ovarian. The figures for the TGI in the assay on SNB-75 CNS, in the assay on RPMI-8226 leukemia and in the assay on OVCAR-4 ovarian were 35.1 µM, more than 100 µM and 30.4 µM, respectively.
Take `O=C(/C=C/c1ccc([N+](=O)[O-])cc1)c1ccc(NCc2nc3ccccc3[nH]2)cc1`: the TGI in the assay with 786-0 renal worked out at 10.8 µM; in the assay on COLO 205 colon, 7.71 µM; in the assay on HL-60(TB) leukemia, 4.25 µM; in the assay on K-562 leukemia it was 7.03 µM; with IGROV1 ovarian, 18.1 µM; in the assay on SNB-75 CNS, 31.5 µM. This compound returned a TGI in the assay with OVCAR-4 ovarian of 27.8 µM.
On to `O=c1c(-c2ccccc2)c2oc(c1-c1ccccc1)CSCc1cccc(c1)CSC2`, for which the TGI in the assay with 786-0 renal was 89.8 µM; in the assay on COLO 205 colon it was more than 100 µM; in the assay with HL-60(TB) leukemia, more than 100 µM; with K-562 leukemia it was more than 100 µM; in the assay on HCT-116 colon, more than 100 µM; with IGROV1 ovarian it was more than 100 µM. Besides, the TGI was 69.1 µM with SNB-75 CNS, more than 100 µM with RPMI-8226 leukemia and more than 100 µM in the assay on OVCAR-4 ovarian.
Take `COc1nc(NC2OC(COC(C)=O)C(OC(C)=O)C(OC(C)=O)C2OC(C)=O)c2c(OC(C)=O)cc(=O)oc2n1` (centres undefined): the TGI with 786-0 renal, in the assay on COLO 205 colon, in the assay on HL-60(TB) leukemia, with K-562 leukemia, with HCT-116 colon and in the assay with IGROV1 ovarian was more than 100 µM throughout. For the same compound, the TGI with SNB-75 CNS, in the assay on RPMI-8226 leukemia and in the assay on OVCAR-4 ovarian was more than 100 µM in each case.
As to `CCc1c(OC(C)=O)c2c(NC3OCC(OC(C)=O)C(OC(C)=O)C3OC(C)=O)nc(SC)nc2oc1=O` (centres undefined), the TGI in the assay with 786-0 renal, with COLO 205 colon, with HL-60(TB) leukemia, in the assay on K-562 leukemia, in the assay with HCT-116 colon and in the assay with IGROV1 ovarian was more than 100 µM in each case. The TGI with SNB-75 CNS, in the assay on RPMI-8226 leukemia and in the assay on OVCAR-4 ovarian was more than 100 µM throughout.
On to `S=c1sc2c(n1-c1ccccc1)NC=NC2S` (centres undefined), for which the TGI in the assay with 786-0 renal, in the assay with COLO 205 colon, in the assay on HL-60(TB) leukemia, in the assay on K-562 leukemia, with HCT-116 colon and in the assay with IGROV1 ovarian was more than 100 µM in each case. Besides, the TGI in the assay on SNB-75 CNS, in the assay on RPMI-8226 leukemia and in the assay on OVCAR-4 ovarian was more than 100 µM throughout.
